Data reported in ChEMBL document CHEMBL1781917, “Computational aqueous solubility prediction for drug-like compounds in congeneric series” (Eur J Med Chem, 2008).

Legend:
Type in all cases: physicochemical
[1] = Lipophilicity, log P of the compound; details: octanol/water
[2] = Intrinsic solubility, log 1/S0 of the compound
[3] = Dissociation constant, pKa of the compound

Structure (SMILES)	logP [1]	log1/S0 [2]	pKa [3]
Cc1cc(C)nc(NS(=O)(=O)c2ccc(N)cc2)n1 [SULFAMETHAZINE]	0.89	–	–
COc1cc(NS(=O)(=O)c2ccc(N)cc2)nc(C)n1 [SULFAMETOMIDINE]	–	3.05	–
CC(C)C(NC(=O)Cn1c(-c2ccccc2)cc2c(=O)n(CCN3CCOCC3)c(=O)[nH]c2c1=O)C(=O)C(F)(F)F (stereo unspecified)	–	3.44	7.04
Cc1cc(NS(=O)(=O)c2ccc(N)cc2)nc(C)n1 [SULFISOMIDINE]	-0.3	2.78	–
COC(OC)n1c(=O)[nH]c2c(=O)n(CC(=O)NC(C(=O)C(F)(F)F)C(C)C)c(-c3ccccc3)cc2c1=O (stereo unspecified)	–	3.11	–
CC(C)C(NC(=O)Cn1c(-c2ccccc2)cc2c(=O)n(C)c(=O)[nH]c2c1=O)C(=O)C(F)(F)F (stereo unspecified)	–	4.03	–
COc1ccc(NS(=O)(=O)c2ccc(N)cc2)nn1 [SULFAMETHOXYPYRIDAZINE]	0.4	2.55	–
CN1C(=O)CN=C(c2ccccc2)c2cc(Cl)ccc21 [DIAZEPAM]	–	3.83	–
Nc1ccc(S(=O)(=O)Nc2ncccn2)cc1 [SULFADIAZINE]	-0.13	3.67	–
Cc1ccnc(NS(=O)(=O)c2ccc(N)cc2)n1 [SULFAMERAZINE]	0.13	–	–
COc1ccc(Cn2c(=O)[nH]c3c(=O)n(CC(=O)NC(C(=O)C(F)(F)F)C(C)C)c(-c4ccccc4)cc3c2=O)cc1 (stereo unspecified)	–	3.4	–
COc1cnc(NS(=O)(=O)c2ccc(N)cc2)nc1	0.46	3.63	–
O=C1CN=C(c2ccccc2Cl)c2cc(Cl)ccc2N1 [DELORAZEPAM]	–	3.97	–
CN1CCN=C(c2ccccc2)c2cc(Cl)ccc21 [MEDAZEPAM]	–	4.41	–
Cc1noc(NS(=O)(=O)c2ccc(N)cc2)c1C [SULFISOXAZOLE]	1.15	3.45	–
COc1ncnc(NS(=O)(=O)c2ccc(N)cc2)c1OC [SULFADOXINE]	1.06	3.59	–
CC(C)C(NC(=O)Cn1c(-c2ccccc2)cc2c(=O)n(CC(N)=O)c(=O)[nH]c2c1=O)C(=O)C(F)(F)F (stereo unspecified)	–	3.6	–
CNC(=O)Cn1c(=O)[nH]c2c(=O)n(CC(=O)NC(C(=O)C(F)(F)F)C(C)C)c(-c3ccccc3)cc2c1=O (stereo unspecified)	–	3.73	–
CCOCCn1c(=O)[nH]c2c(=O)n(CC(=O)NC(C(=O)C(F)(F)F)C(C)C)c(-c3ccccc3)cc2c1=O (stereo unspecified)	–	4.83	–
